From patent US11787762B2, “Tetralin and tetrahydroquinoline compounds as inhibitors of HIF-2alpha” (ARCUS BIOSCIENCES, INC., priority 2020, dated 2023)

Tests used:
[1] = target: T1, Histidine tagged HIF-2α protein containing PAS-B domain (240-350) (Homo sapiens, UniProt Q99814); assay: HIF-2α Scintillation Proximity Assay (SPA) binding assay; settings: Table 1; 50 nM HIF-2α protein, 25 nM 3H-tracer
T1 construct: HIF-2α protein containing PAS-B domain (240-350); made in house
Procedure: HIF-2α Scintillation Proximity Assay (SPA) Binding Assay:
Tritium labeled compound N-(3-chlorophenyl)-4-nitro-2,1,3-benzoxadiazol-5-amine was obtained from American Radiolabeled Chemicals Inc. and copper chelate PVT SPA beads were from PerkinElmer (Cat #RPNQ0095). Histidine tagged HIF-2α protein containing PAS-B domain (240-350) was prepared and purified in house.
Compounds solubilized in DMSO were dispensed into a white 384-well polystyrene non-binding flat clear bottom plate (Greiner Bio-One, Cat #781903) using an HP D300 dispenser. Ten microliters of HIS-tagged HIF-2α protein in buffer (25 mM Tris-HCl, pH 7.4, 150 mM NaCl, 0.15% BSA and 0.001% Tween 20) was added to the compound wells and allowed to incubate for 1 hour at room temperature. Ten microliters of SPA bead mix were added to the wells and incubated for an additional 45 minutes, followed by 10 ul of ^3H-tracer solution. Final assay conditions comprised 50 nM HIF-2α protein, 25 nM radiolabeled tracer and 3 ug beads per well with compounds in 2% DMSO. The plate was read using a MicroBeta Microplate Counter (PerkinElmer) for luminescence detection. The IC50 values of the test compounds were determined from compound dose response curves fitted using a standard four parameter fit equation and are reported in Table 1, Table 2, and Table 3.

HIF-2α = target: T2, HIF-2α (Homo sapiens, UniProt Q99814); assay: HIF-2α luciferase reporter assay in HIF-Luc-786-O cells; assay type: cell-based; settings: Table 1, 20 hours incubation
T2 construct: host or cells: 786-O cells stably transduced with Cignal Lenti HIF Luc Reporter (only the reporter was introduced, not HIF-2α)
T2 sequence (Q99814 whole entry): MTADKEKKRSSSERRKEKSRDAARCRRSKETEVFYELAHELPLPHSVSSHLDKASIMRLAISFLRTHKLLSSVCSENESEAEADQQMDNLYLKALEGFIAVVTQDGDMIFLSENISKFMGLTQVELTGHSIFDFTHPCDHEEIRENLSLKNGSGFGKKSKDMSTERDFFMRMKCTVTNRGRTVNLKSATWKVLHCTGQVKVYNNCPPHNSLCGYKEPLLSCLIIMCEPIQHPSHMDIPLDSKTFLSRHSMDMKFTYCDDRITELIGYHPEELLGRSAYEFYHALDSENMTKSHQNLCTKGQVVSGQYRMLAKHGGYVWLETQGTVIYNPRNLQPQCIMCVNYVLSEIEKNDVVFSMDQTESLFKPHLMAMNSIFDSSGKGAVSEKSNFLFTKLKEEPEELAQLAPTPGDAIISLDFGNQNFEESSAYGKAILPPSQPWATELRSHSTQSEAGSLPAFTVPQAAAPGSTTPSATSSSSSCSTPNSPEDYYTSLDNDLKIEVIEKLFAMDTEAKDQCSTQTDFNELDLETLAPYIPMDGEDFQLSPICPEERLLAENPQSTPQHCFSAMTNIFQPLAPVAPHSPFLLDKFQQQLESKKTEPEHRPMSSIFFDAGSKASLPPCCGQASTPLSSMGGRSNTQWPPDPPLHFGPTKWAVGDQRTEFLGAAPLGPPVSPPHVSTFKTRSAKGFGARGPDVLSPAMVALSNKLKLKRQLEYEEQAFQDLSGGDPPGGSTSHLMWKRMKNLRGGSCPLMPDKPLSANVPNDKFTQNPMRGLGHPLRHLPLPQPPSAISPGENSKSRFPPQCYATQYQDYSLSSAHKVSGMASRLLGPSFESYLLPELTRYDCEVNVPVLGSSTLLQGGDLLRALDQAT
Procedure, shortened: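 786-O cells stably carrying a HIF-responsive luciferase reporter, 20,000/well in OptiMem with 1% DMSO, exposed to compound up to 50 uM for 20 h at 37 °C. ONE-Glo luminescence normalised to DMSO and no-cell controls; IC50 by four-parameter fit.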

T1 sequence (Q99814 240-350): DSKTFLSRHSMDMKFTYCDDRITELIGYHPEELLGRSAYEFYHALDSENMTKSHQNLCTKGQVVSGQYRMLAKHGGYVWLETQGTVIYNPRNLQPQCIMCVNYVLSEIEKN

Row | IC50 [1] [nM] | IC50 (HIF-2α) [nM] | SMILES
1 | 100 to 1000 | 100 to 1000 | O=S(=O)(c1ccc(N2CCCc3cc(F)cc(F)c32)c2c1C(O)C(F)(F)C2)C(F)(F)F (stereo not drawn) [Example 38]
2 | 100 to 1000 | > 1000 | N#Cc1cc(F)cc2c1N(c1ccc(S(=O)(=O)C(F)(F)F)c3ncccc13)CCC2 [Example 40]
3 | 100 to 1000 | > 1000 | CS(=O)(=O)c1ccc(N2CCCc3cc(F)cc(C#N)c32)c2c1[C@H](O)[C@H](F)C2 [Example 41]
4 | 100 to 1000 | > 1000 | N#Cc1cc(F)cc2c1N(c1ccc(C(F)(F)F)c(F)c1CO)CCC2 [Example 42]
5 | 100 to 1000 | > 1000 | CS(=O)(=O)c1ccc(N2CCCc3cc(F)cc(F)c32)c(Cl)c1C#N [Example 43]
6 | > 1000 | > 1000 | N#Cc1cc(F)cc2c1N(c1ccc(C(F)(F)F)c(F)c1CCO)CCC2 [Example 44]
7 | 100 to 1000 | > 1000 | CC[C@@H]1CCN(c2ccc(S(=O)(=O)C(F)(F)F)c3c2C[C@@H](F)[C@H]3O)c2c(F)cc(F)cc21 [Example 45]
8 | > 1000 | > 1000 | Cc1c(F)ccc2c1N(c1ccc(S(=O)(=O)C(F)(F)F)cc1[N+](=O)[O-])CCC2 [Example 46]
9 | 100 to 1000 | > 1000 | CS(=O)(=O)c1ccc(N2CCCc3cc(F)cc(Cl)c32)c2c1[C@H](O)[C@H](F)C2 [Example 47]
10 | 100 to 1000 | > 1000 | O=S(=O)(c1ccc(N2CCCc3cc(F)cc(F)c32)c2c1C(F)C(F)(F)C2)C(F)(F)F (stereo not drawn) [Example 48]
11 | 100 to 1000 | > 1000 | O=S(=O)(c1ccc(N2CCCc3cc(F)cc(F)c32)c2c1C(F)CC2)C(F)(F)F (stereo not drawn) [Example 49]
12 | > 1000 | > 1000 | O=S(=O)(c1ccc(N2C[C@H](O)Cc3cc(F)cc(F)c32)c2c1[C@H](O)[C@H](F)C2)C(F)(F)F [Example 50]
13 | 100 to 1000 | > 1000 | O=S1(=O)c2ccc(N3CCCc4cc(F)cc(F)c43)c(Cl)c2C(O)C1(F)F (stereo not drawn) [Example 52]
14 | > 1000 | > 1000 | CS(=O)(=O)c1ccc(N2CCCc3cc(F)cc(F)c32)c(C(F)F)c1C#N [Example 53]
15 | > 1000 | > 1000 | O=S(=O)(c1ccc(N2CCCc3cc(F)cc(F)c32)c2c1[C@H](O)[C@@H](F)C2)C(F)(F)F [Example 54]
16 | > 1000 | > 1000 | CC(C)(O)c1cc(N2CCCc3cc(F)cc(F)c32)ccc1S(C)(=O)=O [Example 55]
17 | 100 to 1000 | > 1000 | O=S1(=O)c2ccc(N3CCCc4cc(F)cc(F)c43)c(Cl)c2C(F)C1(F)F (stereo not drawn) [Example 56]
18 | > 1000 | > 1000 | O=[N+]([O-])c1cc(S(=O)(=O)C(F)(F)F)ccc1N1CCCc2ccc(F)c(F)c21 [Example 57]
19 | > 1000 | > 1000 | O=[N+]([O-])c1cc(S(=O)(=O)C(F)(F)F)ccc1N1CCCc2cc(Cl)cc(F)c21 [Example 58]
20 | > 1000 | > 1000 | CC(O)(c1ccc(N2CCCc3cc(F)cc(C#N)c32)c([N+](=O)[O-])c1)C(F)(F)F (stereo not drawn) [Example 59]
21 | > 1000 | > 1000 | COc1ccc2c(c1)N(c1ccc(S(=O)(=O)C(F)(F)F)cc1[N+](=O)[O-])CCC2 [Example 60]
22 | > 1000 | > 1000 | N#Cc1cc(F)cc2c1N(c1ccc(C(F)(F)F)c(F)c1C(O)C(F)(F)F)CCC2 (stereo not drawn) [Example 61]
23 | > 1000 | > 1000 | O=[N+]([O-])c1cc(S(=O)(=O)C(F)(F)F)ccc1N1CCCc2cc(F)ccc21 [Example 62]
24 | > 1000 | > 1000 | OCc1cc(N2CCCc3cc(F)cc(F)c32)ccc1C(F)(F)F [Example 63]

Row | IC50 [1] [nM] | IC50 (HIF-2α) [nM] | SMILES
25 | > 1000 | > 1000 | O=[N+]([O-])c1cc(S(=O)(=O)C(F)(F)F)ccc1N1CCCc2c(F)cc(F)cc21 [Example 64]
26 | > 1000 | > 1000 | N#Cc1ccc2c(c1)N(c1ccc(S(=O)(=O)C(F)(F)F)cc1[N+](=O)[O-])CCC2 [Example 65]
27 | > 1000 | > 1000 | O=S(=O)(c1ccc(N2C[C@@H](O)Cc3cc(F)cc(F)c32)c2c1[C@H](O)[C@H](F)C2)C(F)(F)F [Example 66]
28 | > 1000 | > 1000 | O=Cc1c(S(=O)(=O)C(F)(F)F)ccc(N2CCCc3cc(F)cc(F)c32)c1Cl [Example 68]
29 | 100 to 1000 | > 1000 | O=Cc1c(S(=O)(=O)C(F)(F)F)ccc(N2CCCc3cc(F)cc(F)c32)c1Cl [Example 69]
30 | > 1000 | > 1000 | O=[N+]([O-])c1cc(C(O)(C(F)(F)F)C(F)(F)F)ccc1N1CCCc2cc(F)cc(F)c21 [Example 70]
31 | > 1000 | > 1000 | N#Cc1c(Cl)ccc(N2CCCc3cc(F)cc(F)c32)c1C(F)F [Example 71]
32 | > 1000 | > 1000 | N#Cc1c(S(N)(=O)=O)ccc(N2CCCc3cc(F)cc(F)c32)c1C(F)F [Example 72]
33 | > 1000 | > 1000 | O=[N+]([O-])c1cc(S(=O)(=O)C(F)(F)F)ccc1N1CCOc2cc(F)cc(F)c21 [Example 73]
34 | > 1000 | > 1000 | Cc1ccc2c(c1)N(c1ccc(S(=O)(=O)C(F)(F)F)cc1[N+](=O)[O-])CCC2 [Example 74]
35 | > 1000 | > 1000 | N#Cc1c(S(N)(=O)=O)ccc(N2CCCc3cc(F)cc(F)c32)c1Cl [Example 75]
36 | > 1000 | > 1000 | O=S(=O)(c1ccc(N2CCCc3cc(F)cc(F)c32)cc1CO)C(F)(F)F [Example 76]
37 | > 1000 | > 1000 | COC(=O)c1cc(N2CCCc3cc(F)cc(F)c32)ccc1S(=O)(=O)C(F)(F)F [Example 77]
38 | > 1000 | > 1000 | O=S(=O)(c1ccc(N2CCCc3cc(F)cc(F)c32)c2c1C(O)CC2)C(F)(F)F (stereo not drawn) [Example 78]
39 | > 1000 | > 1000 | O=S(=O)(c1ccc(N2CCCc3cc(F)cc(F)c32)c(Cl)c1C(O)C(F)(F)F)C(F)(F)F (stereo not drawn) [Example 79]
40 | > 1000 | > 1000 | N#Cc1cc(S(=O)(=O)C(F)(F)F)ccc1N1CCCc2cc(F)cc(F)c21 [Example 80]
41 | > 1000 | > 1000 | O=S(=O)(c1ccc(N2CCCc3cc(F)cc(F)c32)c2cn[nH]c12)C(F)(F)F [Example 81]
42 | > 1000 | > 1000 | O=S(=O)(c1ccc(N2CCCc3cc(F)cc(F)c32)c(Cl)c1CO)C(F)(F)F [Example 83]
43 | > 1000 | > 1000 | O=[N+]([O-])c1cc(C(O)C(F)(F)F)ccc1N1CCCc2cc(F)cc(F)c21 (stereo not drawn) [Example 84]
44 | > 1000 | > 1000 | COC(=O)c1c(S(=O)(=O)C(F)(F)F)ccc(N2CCCc3cc(F)cc(F)c32)c1Cl [Example 85]
45 | > 1000 | > 1000 | N#Cc1cc(C(F)(F)F)ncc1N1CCCc2cc(F)cc(F)c21 [Example 86]
46 | > 1000 | > 1000 | CC(O)(c1ccc(N2CCCc3cc(F)cc(F)c32)c([N+](=O)[O-])c1)C(F)(F)F (stereo not drawn) [Example 87]
47 | < 100 | < 100 | O=S(=O)(c1ccc(C2CCCc3cc(F)cc(F)c32)c2c1[C@H](O)[C@H](F)C2)C(F)(F)F (stereo partly drawn) [Example 89]

Row | SMILES | IC50 [1] [nM] | IC50 (HIF-2α) [nM]
48 | N#Cc1cc(N2CCCc3cc(F)cc(C#N)c32)ccc1C(F)(F)F [Example 39] | < 100 | > 1000
